Reference: patent publication US7807678B2, “Peptidomimetics of biologically active metallopeptides” (Palatin Technologies, Inc., priority 2001, dated 2010)

Columns and labels:
MC3-R = MC3-R (Homo sapiens, UniProt P41968); test: Competitive inhibition binding assay, 125I-NDP-α-MSH, MC3-R; set-up: expressed in transfected cells; conditions: for Inhibition at 1 μM MC3-R: 1 μM compound, inhibition of 125I-NDP-α-MSH binding, mean of triplicates, results less than 0% reported as 0%
Outline: (§1)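 Membranes from hMC3-R, hMC4-R or hMC5-R cells, or B-16 mouse melanoma cells (MC1-R), were incubated 90 min at room temperature with 0.4 nM 125I-NDP-α-MSH in HEPES pH 7.2 with Mg2+/Ca2+/K+, and test compound generally at 1 μM. Filter-bound radioactivity was gamma counted. Specific binding was defined with 1 μM α-MSH; triplicate means.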

MC5-R = MC5-R (Homo sapiens, UniProt P33032); test: Competitive inhibition binding assay, 125I-NDP-α-MSH, MC5-R; set-up: expressed in transfected cells; conditions: for Inhibition at 1 μM MC5-R: 1 μM compound, inhibition of 125I-NDP-α-MSH binding, mean of triplicates, results less than 0% reported as 0%
Outline: as §1

[1] = molecular target: T1, MC1-R (B-16 mouse melanoma cells) (Mus musculus, UniProt Q01727); test: Competitive inhibition binding assay, 125I-NDP-α-MSH, MC1-R; conditions: for Inhibition at 1 μM MC1-R: 1 μM compound, inhibition of 125I-NDP-α-MSH binding, mean of triplicates, results less than 0% reported as 0%
T1 construct: B-16 mouse melanoma cells (containing MC1-R); endogenous in cells; host or cells: B-16 mouse melanoma cells
Outline: as §1

MC4-R = MC4-R (Homo sapiens, UniProt P32245); test: Competitive inhibition binding assay, 125I-NDP-α-MSH, MC4-R; set-up: expressed in transfected cells; conditions: for Inhibition at 1 μM MC4-R: 1 μM compound, inhibition of 125I-NDP-α-MSH binding, mean of triplicates, results less than 0% reported as 0%
Outline: as §1

T1 sequence (Q01727 whole entry): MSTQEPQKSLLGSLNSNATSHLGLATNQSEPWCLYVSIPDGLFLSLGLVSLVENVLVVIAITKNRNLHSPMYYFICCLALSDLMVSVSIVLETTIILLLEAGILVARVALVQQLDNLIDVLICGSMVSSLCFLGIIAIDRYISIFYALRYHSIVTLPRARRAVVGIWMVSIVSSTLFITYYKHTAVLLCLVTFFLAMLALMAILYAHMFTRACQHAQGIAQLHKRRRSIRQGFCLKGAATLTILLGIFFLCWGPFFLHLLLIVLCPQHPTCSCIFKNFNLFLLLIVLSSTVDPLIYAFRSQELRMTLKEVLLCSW
Sequence of MC3-R (P41968 whole entry): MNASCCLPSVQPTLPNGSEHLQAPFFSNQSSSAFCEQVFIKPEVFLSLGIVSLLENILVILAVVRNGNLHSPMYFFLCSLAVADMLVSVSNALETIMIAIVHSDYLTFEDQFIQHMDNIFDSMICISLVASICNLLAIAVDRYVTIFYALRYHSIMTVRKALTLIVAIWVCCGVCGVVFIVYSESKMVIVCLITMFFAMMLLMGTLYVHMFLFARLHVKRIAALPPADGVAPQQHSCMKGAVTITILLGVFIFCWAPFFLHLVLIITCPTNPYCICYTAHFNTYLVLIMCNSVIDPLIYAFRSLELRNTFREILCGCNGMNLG
Sequence of MC4-R (P32245 whole entry): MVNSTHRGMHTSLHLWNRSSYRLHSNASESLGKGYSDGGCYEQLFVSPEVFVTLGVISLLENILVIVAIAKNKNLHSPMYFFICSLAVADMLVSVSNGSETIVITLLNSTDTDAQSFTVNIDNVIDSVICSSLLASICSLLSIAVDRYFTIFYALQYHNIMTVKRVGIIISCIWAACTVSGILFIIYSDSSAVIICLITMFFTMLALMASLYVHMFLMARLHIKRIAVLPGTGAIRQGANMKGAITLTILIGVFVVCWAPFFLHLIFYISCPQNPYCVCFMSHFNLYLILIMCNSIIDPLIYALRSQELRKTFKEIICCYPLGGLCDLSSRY
Sequence of MC5-R (P33032 whole entry): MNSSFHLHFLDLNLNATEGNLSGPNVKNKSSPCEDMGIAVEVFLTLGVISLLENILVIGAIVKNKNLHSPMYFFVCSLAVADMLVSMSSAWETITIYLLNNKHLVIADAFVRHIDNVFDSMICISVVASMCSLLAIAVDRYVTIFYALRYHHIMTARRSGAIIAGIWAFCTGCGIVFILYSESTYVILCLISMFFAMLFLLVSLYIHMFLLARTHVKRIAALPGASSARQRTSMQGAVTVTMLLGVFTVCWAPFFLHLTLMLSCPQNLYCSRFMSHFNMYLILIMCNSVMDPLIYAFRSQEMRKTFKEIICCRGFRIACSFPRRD

| SMILES | Inhibition at 1 μM MC3-R (MC3-R) | Inhibition at 1 μM MC5-R (MC5-R) | Inhibition at 1 μM MC1-R [1] | Inhibition at 1 μM MC4-R (MC4-R) | inhibition at 1 µM (MC3-R) | inhibition at 1 µM (MC5-R) | inhibition at 1 µM [1] | inhibition at 1 µM (MC4-R) |
| --- | --- | --- | --- | --- | --- | --- | --- | --- |
| N=C(N)NCCC[C@H]1C(=O)N(CCc2c[nH]c3ccccc23)CCN1C(=O)[C@@H](Cc1ccccc1Cl)NC(=O)[C@@H]1C[C@@H](OCc2ccccc2)CN1 [Example 19] | 59% | 85% | 91% | 99% |  |  |  |  |
| NCCCC[C@H]1C(=O)N2C(CC[C@@H]2COc2ccc3ccccc3c2)N1C(=O)[C@@H](Cc1ccccc1Cl)NC(=O)[C@H]1Cc2ccccc2CN1 (stereo partly shown) [Example 93] | 12% | 18% | 47% | 79% |  |  |  |  |
| NCCCC[C@H]1C(=O)N2C(CC[C@@H]2COc2ccc3ccccc3c2)N1C(=O)[C@@H](Cc1ccccc1Cl)NC(=O)C1(N)CCc2ccccc21 (stereo partly shown) [Example 96] | 0% | 17% | 39% | 12% |  |  |  |  |
| NCCCC[C@H]1C(=O)N(CCOc2ccc3ccccc3c2)CCN1C(=O)[C@@H](Cc1ccc(Cl)cc1)NC(=O)[C@@H]1Cc2ccccc2CN1 [Example 30] | 35% | 65% | 88% | 88% |  |  |  |  |
| N[C@H](Cc1ccc(Cl)cc1Cl)C(=O)N1CCN(CCc2ccc3ccccc3c2)C(=O)[C@@H]1CCCNc1ncccn1 [Example 68] | 9% | 19% | 3% | 12% |  |  |  |  |
| NCCCC[C@H]1C(=O)N(CCc2ccc3ccccc3c2)CCN1C(=O)[C@H](N)Cc1ccc2ccccc2c1 [Example 59] | 14% | 30% | 26% | 72% |  |  |  |  |
| N=C(N)NCCC[C@H]1C(=O)N(CCc2c[nH]c3ccccc23)CCN1C(=O)[C@@H](Cc1ccccc1Cl)NC(=O)[C@@H]1Cc2ccccc2CN1 [Example 18] | 50% | 62% | 95% | 99% |  |  |  |  |
| NCCCNC(=O)[C@@H]1C[C@@H](OCc2ccccc2)CN1C(=O)[C@@H](Cc1ccccc1)NC(=O)[C@H](Cc1cnc[nH]1)NC(=O)c1ccccc1 [Example 140] | 3% | 10% | 78% | 1% |  |  |  |  |
| NCCCCCCC(=O)N[C@@H](COCc1ccccc1)C(=O)N[C@H](Cc1ccc(Cl)cc1)C(=O)N1C2CC[C@H](COc3ccc4c(c3)CCCC4)N2C(=O)[C@@H]1CCCCN (stereo partly shown) [Example 110] | 59% | 84% | 97% | 96% |  |  |  |  |
| NCCCNC(=O)[C@@H]1C[C@@H](OCc2ccccc2)CN1C(=O)[C@@H](Cc1ccccc1)NC(=O)[C@H](N)Cc1ccc2ccccc2c1 [Example 158] | 5% | 0% | 0% | 0% |  |  |  |  |
| [2H]N1CCCC1C(=O)NC(Cc1ccccc1)C(=O)N1CC(OCc2ccccc2)CC1C(=O)NCCCN (stereo not shown) [Example 167] | 0% | 5% | 22% | 8% |  |  |  |  |
| CNC(=N)NCCC[C@H]1C(=O)N(CCc2ccc3ccccc3c2)CCN1C(=O)[C@H](N)Cc1ccc(Cl)cc1Cl [Example 72] | 43% | 27% | 19% | 93% |  |  |  |  |
| NCCC[C@H]1C(=O)N(CCc2ccc3ccccc3c2)CCN1C(=O)[C@H](N)Cc1ccc(Cl)cc1Cl [Example 49] | 0% | 1% | 2% | 43% |  |  |  |  |
| NCCCC[C@H]1C(=O)N2C(CC[C@@H]2COc2ccc3ccccc3c2)N1C(=O)[C@@H](Cc1ccccc1Cl)NC(=O)[C@@H]1CC[C@H](c2ccccc2)N1 (stereo partly shown) [Example 85] | 0% | 13% | 4% | 44% |  |  |  |  |
| NCCCCC1C(=O)N2C(COc3ccccc3)CCC2N1C(=O)C(N)Cc1ccccc1Cl (stereo not shown) [Example 104] | 4% | 0% | 0% | 0% |  |  |  |  |
| COC(=O)NCCC[C@H]1C(=O)N(CCc2ccc3ccccc3c2)CCN1C(=O)[C@@H](Cc1ccc(Cl)cc1Cl)NC(=O)[C@@H](N)COCc1ccccc1 [Example 43] | 0% | 20% | 1% | 43% |  |  |  |  |
| NCCCNC(=O)[C@@H]1C[C@@H](OCc2ccccc2)CN1C(=O)[C@@H](Cc1ccccc1)NC(=O)C1(N)CCCC1 [Example 161] | 23% | 0% | 3% | 10% |  |  |  |  |
| N[C@H](Cc1ccc(Cl)cc1Cl)C(=O)N1CCN(CCc2ccc3ccccc3c2)C(=O)[C@@H]1CCCn1cncn1 [Example 58] | 0% | 3% | 7% | 0% |  |  |  |  |
| N=C(N)NCCC[C@H]1C(=O)N(CCc2c[nH]c3ccccc23)CCN1C(=O)[C@H](N)Cc1ccc(Cl)cc1 [Example 125] | 28% | 43% | 10% | 68% |  |  |  |  |
| NCCCC[C@H]1C(=O)N2C(CC[C@@H]2COc2ccc3ccccc3c2)N1C(=O)[C@@H](Cc1ccccc1Cl)NC(=O)C1(N)CCc2ccccc2C1 (stereo partly shown) [Example 89] | 0% | 22% | 24% | 34% |  |  |  |  |
| NCCCNC(=O)C1CC(OCc2ccccc2)CN1C(=O)C(Cc1ccccc1)NC(=O)C1NCCc2ccccc21 (stereo not shown) [Example 159] | 14% | 0% | 0% | 1% |  |  |  |  |
| CC(=O)NC(Cc1cnc[nH]1)C(=O)NC(Cc1ccccc1)C(=O)N1CC(OCc2ccccc2)CC1C(=O)NCCCN (stereo not shown) [Example 139] | 46% | 34% | 85% | 43% |  |  |  |  |
| [2H]NC(Cc1cnc[nH]1)C(=O)NC(Cc1ccccc1)C(=O)N1C(CCCNC(=N)N)C(=O)N2C(COc3ccc4ccccc4c3)CCC21 (stereo not shown) [Example 97] | 30% | 28% | 99% | 69% |  |  |  |  |
| NC(=O)NCCCC[C@H]1C(=O)N(CCc2ccc3ccccc3c2)CCN1C(=O)[C@H](N)Cc1ccc(Cl)cc1Cl [Example 66] | 15% | 14% | 43% | 49% |  |  |  |  |
| N[C@H](Cc1ccc(Cl)cc1Cl)C(=O)N1CCN(CCc2ccc3ccccc3c2)C(=O)[C@@H]1CCCCNC(=O)CC1CCCCC1 [Example 62] | 4% | 2% | 0% | 6% |  |  |  |  |
| NCCCNC(=O)[C@@H]1C[C@@H](OCc2ccccc2)CN1C(=O)[C@@H](Cc1ccccc1)NC(=O)C1(N)Cc2ccccc2C1 [Example 163] | 16% | 0% | 0% | 15% |  |  |  |  |
| [2H]N[C@@H](Cc1cnc[nH]1)C(=O)N[C@@H](Cc1ccccc1)C(=O)N1CC2C[C@H](Oc3ccc4ccccc4c3)CN2C(=O)[C@@H]1CCCCN (stereo partly shown) [Example 179] |  |  |  |  | 0% | 0% | 0% | 0% |
| NCCCNC(=O)[C@@H]1C[C@@H](OCc2ccccc2)CN1C(=O)[C@@H](Cc1ccccc1)NC(=O)C1CCC(CN)CC1 (stereo partly shown) [Example 168] | 0% | 0% | 18% | 10% |  |  |  |  |
